Assay results as given in US20170298051A1, “ACTIVATOR OF ADIPONECTIN RECEPTOR” (THE UNIVERSITY OF TOKYO, priority 2013, published 2017).

How the values were obtained:
AdipoR1 [1] = target: T1, AdipoR1 (Homo sapiens, UniProt Q96A54); assay: Measurement of AMPK phosphorylation ability (Assay 1), HEK 293T cells, Western blotting; assay type: cell-based; parameters: HEK 293T cells (ATCC; CRL-3216, medium; host or cells: HEK 293T; details: 10 minutes
T1 sequence (Q96A54 1-375): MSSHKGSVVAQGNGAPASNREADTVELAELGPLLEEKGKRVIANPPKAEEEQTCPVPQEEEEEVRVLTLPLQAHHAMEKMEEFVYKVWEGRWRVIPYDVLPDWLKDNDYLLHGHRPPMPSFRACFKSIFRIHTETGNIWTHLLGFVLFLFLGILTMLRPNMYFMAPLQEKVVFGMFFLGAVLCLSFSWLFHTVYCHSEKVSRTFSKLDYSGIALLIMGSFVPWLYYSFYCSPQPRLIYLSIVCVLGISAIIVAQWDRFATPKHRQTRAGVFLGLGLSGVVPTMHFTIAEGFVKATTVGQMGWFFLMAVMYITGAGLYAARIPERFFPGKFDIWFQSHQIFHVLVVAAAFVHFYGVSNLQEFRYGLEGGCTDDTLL
Method: (§1) The AMPK phosphorylation ability of the respective compounds according to the present invention was measured by using differentiated C2C12 cells or HEK 293T cells.
HEK 293T cells (ATCC; CRL-3216, medium; DMEM, Fetal Bovine Serum (FBS)) were cultured in a 12- or 24-well plate until they reached 100% confluency (37° C., 5% CO2).
After starvation, a test compound listed in Tables 10 and 11 (concentration: 25 μM, 50 μM) was added thereto, and after 10 minutes, the medium was discarded and the plate was frozen with liquid nitrogen.
(§2) To the 12- or 24-well cell plate which had been frozen was added 100 or 150 μL of Cell lysis buffer pH 7.4 (50 mM HEPES (pH 7.4), 2 mM sodium orthovanadate, 10 mM sodium pyrophosphate, 10 mM NaF, 2 mM EDTA, 2 mM EGTA, 0.1% (v/v) NP-40, 0.2 mM PMSF), and the cells were scraped off with a cell scraper, suspended and transferred into a micro centrifugal tube. And then, the cells were ultrasonically crushed (1 second×3 times) with a sonicator. Centrifugation was performed at 4° C. at 15,000 rpm for 15 minutes, and the supernatant was recovered into a new tube.
(§3) To 100 μL of the supernatant was added 25 μL of 5× sample buffer (280 mM Tris-HCl (pH 6.9), 40% glycerol, 10% (3-mercaptoethanol, 13% SDS, a small amount of bromophenol blue) and mixed together. The rest of the supernatant was used for protein quantification, and the protein concentrations were uniformed by adding 1× sample buffer depending on the concentration of each sample.
(§4) An electrophoresis chamber was filled with 1× SDS buffer (25 mM Tris-HCl, 250 mM glycine, 0.1% SDS), and the sample was applied to a well of polyacrylamide gel. Electrophoresis was performed until the bromophenol blue in the sample reached to the bottom of the gel.
(§5) A filter paper was soaked in 1× Transfer buffer sufficiently, above which the PVDF membrane and the gel after electrophoresis were stacked in this order, and thereabove a filter paper which had been soaked in 1× Transfer buffer sufficiently was further stacked, from which an air was removed and the resultant was set in semi-dry type transfer apparatus and transferred (7V, 35 minutes).
(§6) An unnecessary portion of the blotted membrane was cutoff, and the rest was immediately soaked in blocking buffer (5% skimmed milk in Rinse buffer), and shaken at room temperature at 40 rpm for 3 hours.
(§7) After blocking, the membrane was transferred into Rinse buffer, and washed at room temperature for 10 minutes while shaking. The membrane was soaked in a primary antibody solution (AMPK alpha Antibody (Cell signaling; #2532) 1/1,000 in Rinse buffer, Phospho-AMPK alpha (Thr172) (40H9) antibody (Cell signaling; #2535) 1/1,000 in Rinse buffer), and shaken at 4° C. at 40 rpm overnight.
(§8) The membrane was soaked in a secondary antibody solution (goat anti-rabbit IgG-HRP Antibody (Santa Cruz; sc-2030) 1/2,000 in Rinse buffer), and shaken at room temperature at 40 rpm for 1 hour.
(§9) After the membrane was washed for 45 minutes in the same way as after the primary antibody reaction, the membrane was soaked in a chemiluminescent reaction solution (ECL Western Blotting Detection Reagents, GE Healthcare) for about 1 minute. An excess of the reaction solution was removed, and then the membranes were arranged on a transparent film and sandwiched with it, with which an X-ray film was exposed in a darkroom (for about several seconds to 60 seconds) to develop the film.
(§10) The X-ray film was scanned to take the image, for which the band was measured by using the image analysis software “Image J” to determine the respective amounts of pAMPK and AMPK.

AdipoR1 [2] = target: T1, AdipoR1; assay: Measurement of AMPK phosphorylation ability (Assay 2), HEK 293T cells with unrelated or AdipoR1 siRNA; assay type: cell-based; parameters: HEK 293T cells (ATCC; CRL-3216, medium; host or cells: HEK 293T
Method: HEK 293T cells (medium; DMEM, 10% FBS) were cultured in a 24-well plate until they reached 60% confluency (37° C., 5% CO2).
(§11) First, 1 μL of Lipofectamine RNAiMAX and 50 μL of OPTI-MEM were mixed, and then 5 μM siRNA (sense siRNA sequence: […]tt (SEQ ID NO: 1)) and 50 μL of OPTI-MEM were mixed and the resultants were left to stand at room temperature for 5 minutes. And then, the 1 μL Lipofectamine RNAiMAX/50 μL OPTI-MEM and the 5 μM siRNA/50 μL OPTI-MEM were mixed, and the resultant was left to stand at room temperature for 10 minutes, which was added to the cells.
After 5 minutes, the medium (DMEM, 10% FBS) was replaced, and after starvation on the next day, a test compound listed in Tables 10 and 11 was added thereto. After 10 minutes, the medium was discarded and the plate was frozen with liquid nitrogen.
(§12) The respective amounts of pAMPK and AMPK were determined in the same way as in the above Assay 1.

AdipoR1 [3] = assay: Measurement of AMPK phosphorylation ability (Assay 2), C2C12 cells with unrelated or AdipoR1 siRNA; assay type: cell-based, Mouse
Method: C2C12 cells (ATCC; CRL-1772, medium; DMEM, 10% Fetal Bovine Serum (FBS)) were cultured in a 12- or 24-well plate until they reached 100% confluency (37° C., 5% CO2). The medium was changed to DMEM, 2.5% Horse Serum (HS) and differentiation was started. The medium (DMEM, 2.5% HS) was replaced two days after the start of differentiation. The medium (DMEM, 2.5% HS) was further replaced two days after that.
as §11, with “On the next day following the replacement of the medium, first,” for “First,”
After 5 minutes, the medium (DMEM, 2.5 HS) was replaced, and after starvation on the next day, a test compound listed in Table 12 was added thereto. After 10 minutes, the medium was discarded and the plate was frozen with liquid nitrogen.
as §12

AdipoR1 [4] = target: T2, AdipoR1 (Mus musculus, UniProt Q91VH1); assay: Measurement of AMPK phosphorylation ability (Assay 1), differentiated C2C12 cells, Western blotting; assay type: cell-based; details: 10 μM, 10 minutes
T2 construct: C2C12 cells (ATCC; CRL-1772, medium; host or cells: differentiated C2C12
T2 sequence (Q91VH1 1-375): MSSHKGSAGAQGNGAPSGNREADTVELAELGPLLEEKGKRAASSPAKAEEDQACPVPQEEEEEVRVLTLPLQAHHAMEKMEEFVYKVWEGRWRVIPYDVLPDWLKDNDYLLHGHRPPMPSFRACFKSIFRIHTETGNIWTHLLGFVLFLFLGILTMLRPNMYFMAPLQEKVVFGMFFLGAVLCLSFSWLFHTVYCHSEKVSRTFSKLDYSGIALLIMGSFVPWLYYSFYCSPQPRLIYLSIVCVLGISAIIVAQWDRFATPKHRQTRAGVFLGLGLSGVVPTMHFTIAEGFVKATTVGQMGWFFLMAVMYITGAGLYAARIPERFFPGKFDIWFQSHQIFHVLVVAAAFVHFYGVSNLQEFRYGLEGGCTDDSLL
Method: as §1
C2C12 cells (ATCC; CRL-1772, medium; DMEM, 10% FBS) were cultured in a 12- or 24-well plate until they reached 100% confluency (37° C., 5% CO2).
The medium was changed to 2.5% Horse Serum (HS) and differentiation was started. The medium (DMEM, 2.5% HS) was replaced every three days.
After starvation, a test compound listed in Table 12 (concentration: 10 μM) was added thereto, and after 10 minutes, the medium was discarded and the plate was frozen with liquid nitrogen.
as §2, §3, §4, §5, §6, §7, §8, §9, §10

| pAMPK/AMPK (%) (AdipoR1 [1]; 25 μM) | pAMPK/AMPK (%) (AdipoR1 [1]; 50 μM) | pAMPK/AMPK (ratio) siRNA, AdipoR1 siRNA (AdipoR1 [2]) | pAMPK/AMPK (ratio) siRNA, unrelated siRNA (AdipoR1 [2]) | pAMPK/AMPK (%) (AdipoR1 [4]) | SMILES | pAMPK/AMPK (ratio) siRNA, AdipoR1 siRNA (AdipoR1 [3]) | pAMPK/AMPK (ratio) siRNA, unrelated siRNA (AdipoR1 [3]) |
| --- | --- | --- | --- | --- | --- | --- | --- |
| 80.04% | 100.79% | 4.03 ratio | 5.28 ratio |  | O=C(NCCC(=O)N1CCN(Cc2cccc(OC(F)(F)F)c2)CC1)c1ccc([N+](=O)[O-])cc1 [Compound 69] |  |  |
| 84.71% | 88.96% | 2.46 ratio | 2.43 ratio |  | O=C(NCCC(=O)N1CCN(Cc2cccc(O)c2)CC1)c1ccc2ccccc2c1 [Compound 70] |  |  |
|  |  |  |  | 81.05% | COc1cccc(NC(=O)c2ccc(CN3CCN(Cc4ccccc4)CC3)cc2)c1 [No. 103694] | 3.34 ratio | 4.67 ratio |
|  |  |  |  | 84.85% | COc1ccc(CN2CC[C@@]2(C)C(=O)NC2CCN(Cc3ccccc3)CC2)c2ccccc12 [No. 168198] | 2.97 ratio | 4.53 ratio |
|  |  |  |  | 99.03% | COc1ccc(CN2CCN(C(=O)CCNC(=O)c3ccc(C(C)(C)C)cc3)CC2)cc1C [No. 183665] | 2.83 ratio | 2.88 ratio |
|  |  |  |  | 88.87% | COc1ccccc1N1CCN(CCC(=O)Nc2cccc(Cl)c2)CC1 [No. 189474] | 1.62 ratio | 2.00 ratio |
|  |  |  |  | 82.40% | COc1ccccc1N1CCN(CCC(=O)Nc2ccccc2Cl)CC1 [No. 189640] | 1.82 ratio | 1.85 ratio |
|  |  |  |  | 89.56% | COc1ccc(C(=O)N2CCN(Cc3ccc(C(F)(F)F)cc3)CC2)cc1OC [No. 191294] | 3.54 ratio | 3.25 ratio |
|  |  |  |  | 99.10% | COCc1ccc(CN2CCC(Oc3ccc(C(=O)NC4CCCC4)cc3Cl)CC2)o1 [No. 195831] | 2.98 ratio | 2.88 ratio |
|  |  |  |  | 82.72% | O=C(NCc1ccncc1)c1ccc(OC2CCN(Cc3ccoc3)CC2)cc1 [No. 196462] | 2.58 ratio | 2.06 ratio |
|  |  |  |  | 89.63% | COCCNC(=O)c1ccc(OC2CCN(Cc3ccc(OC)cc3F)CC2)c(Cl)c1 [No. 197248] | 2.55 ratio | 2.09 ratio |
|  |  |  |  | 85.37% | COCCNC(=O)c1ccc(OC2CCN(Cc3ccc(C)s3)CC2)c(Cl)c1 [No. 197372] | 1.96 ratio | 1.78 ratio |
|  |  |  |  | 87.39% | Cc1ccccc1CN1CCC(Oc2ccc(C(=O)NCc3ccccn3)cc2)CC1 [No. 198637] | 2.51 ratio | 2.24 ratio |
|  |  |  |  | 83.71% | CC(C)(C)CN1CCC(Oc2ccc(C(=O)NCCc3ccncc3)cc2Cl)CC1 [No. 200737] | 2.68 ratio | 2.13 ratio |
|  |  |  |  | 90.15% | CC(C)N(Cc1cnn(C)c1)C(=O)c1ccc(OC2CCN(Cc3ccccn3)CC2)cc1 [No. 206685] | 2.39 ratio | 1.76 ratio |
|  |  |  |  | 81.28% | CCOCCCNC(=O)c1ccc(OC2CCN(CC(C)(C)C)CC2)c(Cl)c1 [No. 209705] | 1.81 ratio | 1.52 ratio |
|  |  |  |  | 93.79% | COCCNC(=O)c1ccc(OC2CCN([C@@H](C)COc3ccccc3)CC2)c(Cl)c1 [No. 211156] | 2.59 ratio | 2.36 ratio |
|  |  |  |  | 91.97% | CCOc1cccc(CN2CCC(Oc3ccc(C(=O)NCCOC)cc3Cl)CC2)c1 [No. 214617] | 2.78 ratio | 2.21 ratio |
